{"source": "patent US20080249153A1", "about": "“ANTHELMINTIC FORMULATIONS” (priority 2005, published 2008)", "key": {"[1]": {"assay": "Solubility studies of benzimidazoles (triclabendazole, oxfendazole, albendazole, ricobendazole) in different organic solvents", "format": "physicochemical", "experimental": "As a comparison trials were conducted to determine the solubility of various members of the benzimidazole family in different solvents.\nBut more importantly it was discovered that triclabendazole is extremely soluble in 2-pyrrolidone and PEG 400 with more than 500 mg of triclabendazole capable of being dissolved in a ml of these solvents. This is particularly advantageous as it allows for formulations of low volume to be formulated for delivery to cattle and other animals."}, "[2]": {"assay": "Solubility studies of triclabendazole in different alcohols", "format": "physicochemical"}, "[3]": {"settings": "solvents such as benzyl alcohol, propylene glycol, NMP, 2-pyrollidone, PEG, glycerol formal and butyl dioxitol"}}, "note": "Like-named read-outs stand apart in the source and are kept apart here.", "data": [{"smiles": "CCCSc1ccc2nc(NC(=O)OC)[nH]c2c1", "note": "[albendazole]", "values": [{"measurement": "Solubility (in words)", "setting": "[1]; [3]", "value": "either insoluble or so insignificantly soluble"}]}, {"smiles": "COC(=O)Nc1nc2ccc([S+]([O-])c3ccccc3)cc2[nH]1", "note": "(centres unmarked) [oxfendazole]", "values": [{"measurement": "Solubility (in words)", "setting": "[1]", "value": "either insoluble or so insignificantly soluble"}]}, {"smiles": "CCC[S+]([O-])c1ccc2[nH]c(NC(=O)OC)nc2c1", "note": "(centres unmarked) [ricobendazole]", "values": [{"measurement": "Solubility (in words)", "setting": "[1]; [3]", "value": "either insoluble or so insignificantly soluble"}]}, {"smiles": "CSc1nc2cc(Cl)c(Oc3cccc(Cl)c3Cl)cc2[nH]1", "note": "[triclabendazole, 5-Chloro-6-(3,3-dichlorophenoxy)-2-methylthio-1H-benzimidazole]", "values": [{"measurement": "Solubility (in words)", "setting": "[1]", "value": "more soluble generally"}, {"measurement": "Quantity dissolved in 10 ml solvent", "setting": "[1]; in 10 ml 2-pyrrolidone, flowable in nature", "value": "10.0 g (flowable"}, {"measurement": "Quantity dissolved in 10 ml solvent", "setting": "[1]; in 10 ml Benzyl Alcohol, max solubility", "value": "5.0 g (Max"}, {"measurement": "Quantity dissolved in 10 ml solvent", "setting": "[1]; in 10 ml DGBE (butyl dioxitol), max solubility", "value": "2.0 g (Max"}, {"measurement": "Quantity dissolved in 10 ml solvent", "setting": "[1]; in 10 ml Glyceryl Formal, max solubility", "value": "1 g (Max"}, {"measurement": "Quantity dissolved in 10 ml solvent", "setting": "[1]; in 10 ml NMP, max solubility", "value": "4.5 g (Max"}, {"measurement": "Quantity dissolved in 10 ml solvent", "setting": "[1]; in 10 ml PEG400, flowable in nature", "value": "10.0 g (flowable"}, {"measurement": "Quantity dissolved in 10 ml solvent", "setting": "[1]; in 10 ml Propylene Glycol, max solubility", "value": "1.5 g (Max"}, {"measurement": "Amount dissolved", "setting": "[1]; solvent Benzyl Alcohol, max solubility", "value": 357.14, "unit": "mg/mL"}, {"measurement": "Amount dissolved", "setting": "[1]; solvent DGBE (butyl dioxitol), max solubility", "value": 166.66, "unit": "mg/mL"}, {"measurement": "Amount dissolved", "setting": "[1]; solvent Glyceryl Formal, max solubility", "value": 90.91, "unit": "mg/mL"}, {"measurement": "Amount dissolved", "setting": "[1]; solvent NMP (N-methyl pyrrolidone), max solubility", "value": 321.43, "unit": "mg/mL"}, {"measurement": "Amount dissolved", "setting": "[1]; solvent Propylene Glycol, max solubility", "value": 136.36, "unit": "mg/mL"}, {"measurement": "Amount dissolved", "setting": "[2]; solvent 1-butanol", "value": 117.5, "unit": "mg/mL"}, {"measurement": "Quantity dissolved in solvent", "setting": "[2]; solvent 1-butanol", "value": 2, "unit": "gm/15 ml"}, {"measurement": "Amount dissolved", "setting": "[2]; solvent 1-hexanol", "value": 117.5, "unit": "mg/mL"}, {"measurement": "Quantity dissolved in solvent", "setting": "[2]; solvent 1-hexanol", "value": 2, "unit": "gm/15 ml"}, {"measurement": "Amount dissolved", "setting": "[2]; solvent Ethyl alcohol", "value": 88.88, "unit": "mg/mL"}, {"measurement": "Quantity dissolved in solvent", "setting": "[2]; solvent Ethyl alcohol", "value": 2, "unit": "gm/20 ml"}, {"measurement": "Amount dissolved", "setting": "[2]; solvent Isopropyl alcohol", "value": 117.5, "unit": "mg/mL"}, {"measurement": "Quantity dissolved in solvent", "setting": "[2]; solvent Isopropyl alcohol", "value": 2, "unit": "gm/15 ml"}, {"measurement": "Amount dissolved", "setting": "[2]; solvent Methyl alcohol", "value": 88.88, "unit": "mg/mL"}, {"measurement": "Quantity dissolved in solvent", "setting": "[2]; solvent Methyl alcohol", "value": 2, "unit": "gm/20 ml"}]}]}
